# Measurements taken from patent EP0144809A2, “Complex platinum compounds of substituted 5,8-dihydroxy-1,4 naphtoquinones, process for their preparation and their use” (NATEC Institut für naturwissenschaftlich- technische …, priority 1983, dated 1985).
# Test system: Ehrlich Ascites Tumor
# Experiment: Standard test with Ehrlich ascites tumor in ICR mice (antitumor activity)
# Format: in vivo, ICR-Mäusen
# Conditions: Dose 6 mg Pt-Komplex pro kg, intraperitoneal on day 1 and day 6; Cure = animals that survived longer than 60 days; two groups (20 mice) for the control
# From the text: Zur Ermittlung der antikarzinogenen Aktivität der erfindungsgemäßen Platinkomplexverbindungen wurde der Standardtest mit dem Ehrlich Ascites Tumor an ICR-Mäusen angewendet. […] Die Tumorzellen sowie die Platinkomplexverbindungen wurden am Tag Null bzw. am 1. und 6. Tag intraperitonal injiziert. Die Resultate wurden in der nachstehenden Tabelle II zusammengestellt.
# Der Terminus "Cure" wurde vom National Cancer Institute, USA, übernommen und bedeutet, wieviele Tiere länger als 60 Tage überlebt haben. Aus den Resultaten geht deutlich hervor, daß die erfindungsgemäßen Platinkomplexverbindungen gegenüber den bekannten Antitumormitteln der Vergleichsbeispiele 1 und 7 eine mindestens gleich gute, meist sogar deutlich bessere Antitumorwirkung zeigen.
compound,measurement,value
"N.N.[Cl][Pt][Cl] [Positive Kontrolle, cis-Dichloro-diamino-platin(II)]","Anzahl der ""Cures"" pro Tiergruppe",4
